# According to US20230129258A1, “HETEROTANDEM BICYCLIC PEPTIDE COMPLEXES” (BicycleTx Limited, priority 2019, published 2023):
# Read-outs that look alike come from different tables or passages of the source. Starred links: 1 amine or outer side, 2 acyl side, 3 side chain; linkers in the order of their positions; H or OH if unused. Positions of bridges follow the written chain, without caps; N, C: chain ends. Non-standard residues stand in square brackets, D forms with d. Chains are numbered I, II in the order given. No end group written: not given here. *: point of attachment. X1 = O=C(CCOCCOCCOCCN(CCOCCOCCOCCn1cc(CCC(=O)[*:2])nn1)CCOCCOCCOCCn1cc(CCC(=O)[*:3])nn1)[*:1]; X2 = O=C(CCSCCC(=O)[*:1])N1CN(C(=O)CC[*:2])CN(C(=O)CC[*:3])C1; TATA = O=C(CC[*:1])N1CN(C(=O)CC[*:2])CN(C(=O)CC[*:3])C1; Hyp = O=C(O)[C@@H]1C[C@@H](O)CN1; hArg = N=C(N)NCCCC[C@H](N)C(=O)O; tBuAla = CC(C)(C)C[C@H](N)C(=O)O; Nle = CCCC[C@H](N)C(=O)O; Pent4ynoyl = C#CCCC(=O)*; Mpa = O=C(O)CCS
# Key:
# human PBMCs = test: Human PBMC co-culture cytokine secretion assay with EphA2-expressing tumor cells (MC38, HT-1080, HT29); format: cell-based
# Description: […] MC38 were cultured in Dulbecco's Modified Eagle Medium supplemented with 10% heat inactivated Fetal Bovine Serum (FBS), 1× Penicillin/Streptomycin, 10 mM HEPES, and 2 mM L-Glutamine (referred to as R10 medium). Frozen PBMCs from healthy human donors were thawed and washed once in room temperature PBS with benzonase, and then resuspended in RPMI supplemented with 10% heat inactivated Fetal Bovine Serum (FBS), 1× Penicillin/Streptomycin, 10 mM HEPES, and 2 mM L-Glutamine (herein referred to as R10 medium). 100 μl of PBMCs (1,000,000 PBMCs/ml) and 100 μl of tumor cells (100,000 tumor cells/ml) (Effector:Target cell ratio (E:T) 10:1) were plated in each well of a 96 well flat bottom plate for the co-culture assay. 100 ng/ml of soluble anti-CD3 mAb (clone OKT3) was added to the culture on day 0 to stimulate human PBMCs. Test, control compounds, or vehicle controls were diluted in R10 media and 50 μL was added to respective wells to bring the final volume per well to 250 μL. Plates were covered with a breathable film and incubated in a humidified chamber at 37° C. with 5% CO2 for two days. […] Briefly, the standards and samples were added to a black 96 well plate. Microparticle cocktail (provided in Luminex kit, R&D Systems) was added and shaken for 2 hours at room temperature. The plate was washed 3 times using a magnetic holder. Biotin cocktail was then added to the plate and shaken for 1 hour at RT. The plate was washed 3 times using a magnetic holder. Streptavidin cocktail was added to the plate and shaken for 30 minutes at RT. The plates were washed 3 times using a magnetic holder, resuspended in 100 μL of wash buffer, shaken for 2 minutes at RT, and read using the Luminex 2000. Raw data were analyzed using built-in Luminex software to generate standard curves and interpolate protein concentrations, all other data analyses and graphing were performed using Excel and Prism software. Data represents one study with three independent donor PBMCs tested in experimental duplicates.
# Similarly, PBMCs from healthy donors were co-cultured with EphA2 expressing cancer cells (MC38 and HT-1080) at a ratio of 5:1 in presence of anti-CD3 and BCY13272. […]
# [1] = Pharmacokinetics in CD1 mice; format: in vivo, CD-1 mice; details: mouse, in vivo; mice, after IP injection; read-out: circulating plasma half-life (converted)
# Description: (§1) Serial bleeding (about 80 μL blood/time point) was performed via submandibular or saphenous vein at each time point. All blood samples were immediately transferred into prechilled microcentrifuge tubes containing 2 μL K2-EDTA (0.5M) as anti-coagulant and placed on wet ice. Blood samples were immediately processed for plasma by centrifugation at approximately 4° C., 3000 g. The precipitant including internal standard was immediately added into the plasma, mixed well and centrifuged at 12,000 rpm, 4° C. for 10 minutes. The supernatant was transferred into pre-labeled polypropylene microcentrifuge tubes, and then quick-frozen over dry ice. The samples were stored at […] or below as needed until analysis. 7.5 μL of the supernatant samples were directly injected for LC-MS/MS analysis using an Orbitrap Q Exactive in positive ion mode to determine the concentrations of analyte. Plasma concentration versus time data were analyzed by non-compartmental approaches using the Phoenix WinNonlin 6.3 software program. C0, CI, Vdss, T½, AUC(0-last), AUC(0-inf), MRT(0-last), MRT(0-inf) and graphs of plasma concentration versus time profile were reported.
# [2] = Pharmacokinetics in SD rats; format: in vivo; details: rat, in vivo; for half-life: iv, read-out: T1/2 (converted); for clearance: read-out: Clp; for Vd: read-out: Vdss
# Description: as §1, with “Male SD Rats were dosed with each heterotandem Bicycle peptide complex formulated in 25 mM Histidine HCl, 10% sucrose pH 7 by IV bolus or IV infusion (15 minutes). Serial” for “Serial”
# [3] = Pharmacokinetics in cynomolgus monkey; format: in vivo; details: in vivo, IV infusion (15 min), 1 mg/kg
# Description: Serial bleeding (about 1.2 ml blood/time point) was performed from a peripheral vessel from restrained, non-sedated animals at each time point into a commercially available tube containing Potassium (K2) EDTA*2H2O (0.85-1.15 mg) on wet ice and processed for plasma. Samples were centrifuged (3,000×g for 10 minutes at 2 to 8° C.) immediately after collection. 0.1 mL plasma was transferred into labelled polypropylene micro-centrifuge tubes. 5-fold of the precipitant including internal standard 100 ng/mL Labetalol & 100 ng/mL dexamethasone & 100 ng/mL tolbutamide & 100 ng/mL Verapamil & 100 ng/mL Glyburide & 100 ng/mL Celecoxib in MeOH was immediately added into the plasma, mixed well and centrifuged at 12,000 rpm for 10 minutes at 2 to 8° C. Samples of supernatant were transferred into the pre-labeled polypropylene microcentrifuge tubes, and frozen over dry ice. The samples were stored at −60° C. or below until LC-MS/MS analysis. An aliquot of 40 μL calibration standard, quality control, single blank and double blank samples were added to the 1.5 mL tube. Each sample (except the double blank) was quenched with 200 μL IS1 respectively (double blank sample was quenched with 200 μL MeOH with 0.5% tritonX-100), and then the mixture was vortex-mixed well (at least 15 s) with vortexer and centrifuged for 15 min at 12000 g, 4° C. A 10 μL supernatant was injected for LC-MS/MS analysis using an Orbitrap Q Exactive in positive ion mode to determine the concentrations of analyte. Plasma concentration versus time data were analyzed by non-compartmental approaches using the Phoenix WinNonlin 6.3 software program. C0, CI, Vdss, T½, AUC(0-last), AUC(0-inf), MRT(0-last), MRT(0-inf) and graphs of plasma concentration versus time profile were reported.
# CD137 = CD137 (Homo sapiens, UniProt Q07011); test: CD137 reporter assay (Promega, Jurkat cells) in co-culture with EphA2-expressing tumor cells (A549, PC3, HT29); format: cell-based; parameters: host or cells: Jurkat reporter cells
# CD137, sequence (Q07011 24-255): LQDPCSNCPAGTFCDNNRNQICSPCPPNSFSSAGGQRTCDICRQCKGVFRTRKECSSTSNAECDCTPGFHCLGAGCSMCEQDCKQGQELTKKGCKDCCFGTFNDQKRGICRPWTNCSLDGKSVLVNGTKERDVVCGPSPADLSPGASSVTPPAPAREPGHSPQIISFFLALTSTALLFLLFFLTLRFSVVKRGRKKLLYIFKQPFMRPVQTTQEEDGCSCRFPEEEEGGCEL
# Outline: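 Promega CD137 luciferase reporter Jurkat cells co-cultured with tumor cells (RKO for PD-L1; A549, PC3, HT29 for EphA2) and serially diluted test articles in RPMI + 1% FBS, 6 h at 37° C. Bio-Glo luminescence as fold change over cells alone; log(agonist)-response fit gives EC50 (nM) and max fold induction.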
# MC38 tumors = test: Anti-tumor activity of EphA2/CD137 complexes in syngeneic MC38 tumor model; format: in vivo, C57BL/6J-hCD137 mice; details: 15 mg/kg IV Q3D, 7 doses; day 28
# Description: 6-8 weeks old C57BL/6J-hCD137 female mice were inoculated in the flank with 1×10^6 syngeneic MC38 cells. When tumors reached 76 mm^3 size on average, mice were randomized to receive vehicle or BCY12491 (intraperitoneal administration). BCY12491 was administered (n=6 mice/treatment cohort) at either 5 mg/kg or 15 mg/kg either daily (QD) or every three days (Q3D). QD dosed mice received 22 doses of BCY12491 and Q3D dosed mice received 8 doses of BCY12491. Tumor growth was monitored by caliper measurements until day 73 after treatment initiation. The results of this experiment may be seen in FIG. 9 where it can be seen that the effect of BCY12491 on tumor growth becomes apparent in the first two weeks of the dosing period reducing the tumor growth and causing reduction of volumes of many of the treated tumors. By day 41, 15 out of 24 BCY12491 treated animals had completely responded to the treatment and had no palpable tumors left.
# 6-8 week old female C57BL/6J-hCD137 mice [B-hTNFRSF9(CD137) mice; Biocytogen] were implanted subcutaneously with 1×10^6 MC38 cells. Mice were randomized into treatment groups (n=6/cohort) when average tumor volumes reached around 76 mm^3 and were treated with daily doses of vehicle (25 mM histidine, 10% sucrose, pH7). BCY12491 treatment was conducted at two different dose levels (5 and 15 mg/kg) and two different dosing schedules (QD: daily; Q3D: every three days). Animals received either 22 QD doses or 8 Q3D doses intraperitoneally (ip). Tumor growth was monitored until tumor reached volumes over 2000 mm^3 or until 73 days after treatment initiation. After Day 73, 5 complete responder animals were re-challenged with MC38 tumor cell implantation alongside with 5 naïve C57BL/6J-hCD137 mice. Tumor growth was monitored for 20 days.
# (§2) 6-8 week old female C57BL/6J-hCD137 mice [B-hTNFRSF9(CD137) mice; Biocytogen] were implanted subcutaneously with 1×10^6 MC38 cells. Mice were randomized into treatment groups (n=6/cohort) when average tumor volumes reached around 92 mm^3 and were treated intravenously with Q3D doses of vehicle (25 mM histidine, 10% sucrose, pH7), 15 mg/kg of BCY12730, BCY12723 or BCY12491 (7 Q3D doses). Tumor growth was monitored for 28 days or until tumors exceeded 2000 mm^3.
# as §2, with “76” for “92”, “twice weekly (BIW)” for “Q3D”, “5” for “15”, “BCY13048, BCY13050,” for “BCY12730, BCY12723”, “(6 BIW” for “(7 Q3D”
substance,measurement,setting,value
"I: A[hArg]DC[Hyp]LVNPLCLHP[dD]W[hArg]C-NH2 / II: Ac-C[tBuAla]PE[dK]PYCFADPY[Nle]CA-NH2 / III: Ac-C[tBuAla]PE[dK]PYCFADPY[Nle]CA-NH2 (linker I:4-I:11-I:18, II:1-II:8-II:15, III:1-III:8-III:15 via TATA; linker I:N-II:5-III:5 via X1) [BCY12491]",EC50,"human PBMCs; MC38 co-culture, donor 228711, read-out: EC50 of IFN-γ cytokine secretion",0.085 nM
same,EC50,"human PBMCs; MC38 co-culture, donor 228769, read-out: EC50 of IFN-γ cytokine secretion",0.034 nM
same,half-life,[1],150 min
same,half-life,[2]; IV Bolus,78 min
same,clearance,[2]; IV Bolus,20 mL/min/kg
same,Vd,[2]; IV Bolus,1.6 L/kg
same,clearance,[3]; read-out: Clp,3 mL/min/kg
same,half-life,[3]; read-out: T1/2 (converted),192 min
same,Vd,[3]; read-out: Vdss,0.36 L/kg
"I: A[hArg]DC[Hyp]LVNPLCLHP[dD]W[hArg]C-NH2 / II: [Mpa][tBuAla]PE[dK]PYCFADPY[Nle]C-NH2 / III: [tBuAla]PE[dK]PYCFADPY[Nle]C-NH2 (linker I:4-I:11-I:18, II:1-II:8-II:15 via TATA; linker I:N-II:5-III:4 via X1; linker III:N-III:7-III:14 via X2) [BCY12730]",EC50,"human PBMCs; human PBMC-MC38 co-culture, Donor 1, 48 h incubation, read-out: Donor 1 EC50 of IFNγ secretion",0.13 nM
same,EC50,"human PBMCs; human PBMC-MC38 co-culture, Donor 2, 48 h incubation, read-out: Donor 2 EC50 of IFNγ secretion",0.19 nM
same,half-life,[2]; IV Inf (15 minutes),120 min
same,clearance,[2]; IV Inf (15 minutes),18 mL/min/kg
same,Vd,[2]; IV Inf (15 minutes),2.6 L/kg
same,Emax (fold induction over background),CD137; CD137 reporter coculture assay with PC3 tumor cells,61.73
same,EC50,"CD137; EC50, CD137 reporter coculture assay with PC3 tumor cells",0.25 nM
same,complete responses,MC38 tumors,3 out of 6
"BCY12723: EphA2:CD137 1:2; BCY9594 + 2x BCY12143; linker N-(acid-PEG3)-N-bis(PEG3-azide) (peptide 1 A[hArg]DC[Hyp]LVNPLCLHP[dD]W[hArg]C; peptide 2 Ac-C[tBuAla]EE[dK](Pent4ynoyl)PYCFADPY[Nle]C; linker I:4-I:11-I:18, II:1-II:8-II:15 via TATA; not fully specified (bridges); also: chain 2 present twice on linker, EphA2:CD137 1:2)",EC50,"human PBMCs; human PBMC-MC38 co-culture, Donor 1, 72 h incubation, read-out: Donor 1 EC50 of IFNγ secretion",0.13 nM
same,EC50,"human PBMCs; human PBMC-MC38 co-culture, Donor 2, 72 h incubation, read-out: Donor 2 EC50 of IFNγ secretion",0.095 nM
same,"Fold Improvement over BCY9173, EC50 (nM)",CD137; co-culture with PC3,2.2 fold
same,Fold Improvement over Emax,"CD137; co-culture with PC3, versus BCY9173",1.8 fold
same,complete responses,MC38 tumors,2 out of 6
